Source: US8530513B1, “Pharmaceutical uses of diterpene excavatolide B from a coral or an analogue thereof” (National Sun Yat-Sen University, priority 2012, dated 2013)

Each compound was assayed on IL-6 (assay: LPS-induced IL-6 expression in mouse bone marrow-derived dendritic cells, ELISA). Settings: DCs co-treated with LPS and BrDs at 20 μM.
Assay type: cell-based
From the text: For mouse bone marrow-derived DCs (BMDCs), five to six-week-old female C57BL/6JNarl mice were purchased from the National Laboratory Animal Center, Taiwan and kept under SPF conditions. BMDCs were generated from bone marrow cells of C57BL/6 mice as described previously (Yin S Y, Wang W H, Wang B X, Aravindaram K, Hwang P I, Wu H M, Yang N S. BMC genomics 2010, 11:612). In brief, bone marrow was isolated from femurs and tibiae which were then flushed with RPMI-1640 medium using a syringe with a 0.45-mm needle on Day 0. Red blood cells in suspension were lysed for […] with ACK lysing buffer (150 mM NH4Cl, 1.0 mM KHCO3, 0.1 mM EDTA). Bone marrow cells were suspended at a density of 1×10^7 cells/30 ml in RPMI-1640 containing 10% FBS, 2 mM L-glutamine, 1% of nonessential amino acids, 100 U/mL penicillin and 100 μg/mL streptomycin supplemented with 20 ng/mL of mGM-CSF in 15-cm dishes at 37° C. with 5% CO2. On day 2, two-thirds of the medium was removed and 30 mL fresh medium with mGM-CSF was added to the cells. On day 5, culture plates were gently swirled and the floating and loosely adherent cells were discarded. Aliquots of 75% culture media were replenished with 20 ng/mL mGM-CSF and 20 ng/mL mIL-4. On day 7, mouse BMDCs (95% pure CD11b and MHC II) were harvested and incubated in RPMI 1640 medium containing 1 mM sodium pyruvate, 0.1 mM nonessential amino acids, 100 U/ml penicillin, 100 μg/ml streptomycin, and supplemented with 10% fetal bovine serum (Invitrogen, Carlsbad, Calif.) for 24 h at 37° C. with or without test chemicals in the presence or absence of LPS (100 ng/ml).
BMDCs were treated with or without test chemicals in the presence or absence of LPS (100 ng/ml) for 24 h at 37° C. Aliquots of supernatants from DC cultures were assayed for IL-6 and TNF-α using commercial ELISA kits (R&D Systems, Minneapolis, Minn.) following the manufacturer's recommendations.
Several studies have reported that the secretion of specific cytokines, including IL-1β, TNF-α and IL-6 by keratinocytes and various immune cells is involved in cutaneous inflammation (Nestle F O, Di Meglio P, Qin J Z, Nickoloff B J. Nature reviews Immunology 2009, 9:679-691; De Vry C G, Valdez M, Lazarov M, Muhr E, Buelow R, Fong T, Iyer S. J Invest Dermatol 2005, 125:473-481; Cumberbatch M, Dearman R J, Kimber I. Immunology 1996, 87:513-518). In order to investigate the anti-inflammatory effect of BrD1 on cytokine expression, mouse bone marrow-derived dendritic cells were used to evaluate the inhibitory effect of BrD1 on LPS-induced expressions of TNF-α and IL-6. In our time-course study for expression of TNF-α and IL-6, after LPS stimulation, a high expression of TNF-α and IL-6 was maintained at 24 h (FIG. 6A). We therefore chose 24 h as the time point at which to assess the expression of TNF-α and IL-6.

Q: Which “inhibition of LPS-induced IL-6 expression (structure-activity relationship)” value (“inhibition” for short) does the source give for `CCCCCCCCCC(=O)O[C@H]1C[C@H](OC(C)=O)[C@@]2(C)[C@H]([C@H]1C)[C@H](OC(C)=O)[C@]13O[C@@]1(C)C(=O)O[C@H]3/C=C(/C)C[C@H](OC(=O)CCC)[C@@H]2OC(C)=O` [BrD1-10C] here?
A: inhibitory activity gradually decreased

Q: With `CCCCCC(=O)O[C@H]1C[C@H](OC(C)=O)[C@@]2(C)[C@H]([C@H]1C)[C@H](OC(C)=O)[C@]13O[C@@]1(C)C(=O)O[C@H]3/C=C(/C)C[C@H](OC(=O)CCC)[C@@H]2OC(C)=O` [BrD1-6C] as the compound, how does the “inhibition” value read?
A: inhibitory activity gradually decreased

Q: Which “inhibition” value does the source give for `CCCCCCC(=O)O[C@H]1C[C@H](OC(C)=O)[C@@]2(C)[C@H]([C@H]1C)[C@H](OC(C)=O)[C@]13O[C@@]1(C)C(=O)O[C@H]3/C=C(/C)C[C@H](OC(=O)CCC)[C@@H]2OC(C)=O` [BrD1-7C] here?
A: inhibitory activity gradually decreased

Q: For `CCCCC(=O)O[C@H]1C[C@H](OC(C)=O)[C@@]2(C)[C@H]([C@H]1C)[C@H](OC(C)=O)[C@]13O[C@@]1(C)C(=O)O[C@H]3/C=C(/C)C[C@H](OC(=O)CCC)[C@@H]2OC(C)=O` [BrD1-5C], which “inhibition” value is on record?
A: inhibitory activity gradually decreased
